Measurements published in the NIST ThermoML archive (doi:10.1021/je0201370).

Tests used:
[1] = 298.1 K; 101.33 kPa; Liquid; vibrating tube
[2] = excess molar enthalpy (molar enthalpy of mixing); xn = mol fraction of the nth substance listed; settings: 101 kPa, Liquid

c1ccccc1 [benzene]
Settings | mass density [kg/m3]
[1] | 873.45

CCCCCCO [hexan-1-ol]
Settings | mass density [kg/m3]
[1] | 815.16

CCCCCCO [hexan-1-ol] + c1ccccc1
[2]
Settings | excess molar enthalpy [kcal/mol]
298 K, x1 = 0.0619 | 0.155
298 K, x1 = 0.0988 | 0.197
298 K, x1 = 0.1383 | 0.231
298 K, x1 = 0.1909 | 0.258
298 K, x1 = 0.2287 | 0.273
298 K, x1 = 0.2675 | 0.283
298 K, x1 = 0.3137 | 0.289
298 K, x1 = 0.3792 | 0.291
298 K, x1 = 0.4153 | 0.284
298 K, x1 = 0.4625 | 0.271
298 K, x1 = 0.5107 | 0.261
298 K, x1 = 0.5648 | 0.242
298 K, x1 = 0.6192 | 0.217
298 K, x1 = 0.7214 | 0.163
298 K, x1 = 0.7711 | 0.139
298 K, x1 = 0.8482 | 0.0908
298 K, x1 = 0.8884 | 0.0691
298 K, x1 = 0.979 | 0.0136
308 K, x1 = 0.037 | 0.115
308 K, x1 = 0.0647 | 0.173
308 K, x1 = 0.1001 | 0.217
308 K, x1 = 0.1428 | 0.256
308 K, x1 = 0.1815 | 0.279
308 K, x1 = 0.2272 | 0.299
308 K, x1 = 0.2476 | 0.306
308 K, x1 = 0.3195 | 0.317
308 K, x1 = 0.3867 | 0.322
308 K, x1 = 0.463 | 0.313
308 K, x1 = 0.4675 | 0.31
308 K, x1 = 0.5017 | 0.303
308 K, x1 = 0.5463 | 0.288
308 K, x1 = 0.593 | 0.266
308 K, x1 = 0.6577 | 0.231
308 K, x1 = 0.7485 | 0.177
308 K, x1 = 0.8067 | 0.137
308 K, x1 = 0.8318 | 0.119
308 K, x1 = 0.8867 | 0.0796
308 K, x1 = 0.9323 | 0.0478

CCCOC(=O)CC [propyl propanoate]
Settings | mass density [kg/m3]
[1] | 875.53

CCCOC(=O)CC [propyl propanoate] + CCCCCCO
[2], 308 K
Settings | excess molar enthalpy [kcal/mol]
x1 = 0.0406 | 0.0552
x1 = 0.089 | 0.116
x1 = 0.1367 | 0.17
x1 = 0.1766 | 0.208
x1 = 0.247 | 0.269
x1 = 0.3217 | 0.315
x1 = 0.3805 | 0.34
x1 = 0.4198 | 0.355
x1 = 0.4667 | 0.361
x1 = 0.5259 | 0.367
x1 = 0.5961 | 0.362
x1 = 0.6484 | 0.349
x1 = 0.6999 | 0.327
x1 = 0.7542 | 0.299
x1 = 0.7995 | 0.263
x1 = 0.8595 | 0.205
x1 = 0.9109 | 0.143
x1 = 0.9496 | 0.0872
